This is an account of results in patent US20120004268A1, “INSECTICIDAL COMPOSITIONS COMPRISING CYCLIC CARBONYLAMIDINES” (BAYER CROPSCIENCE AG, priority 2010, published 2012).

Holding throughout (assay type): in vivo
The test system of test [1] is Aphis gossypii. Put plainly: Foliar application Aphis gossypii / cotton (spray test). The note with it: spray on infested cotton plants, 6 days. On the procedure: Foliar Application Aphis gossypii/Cotton
(§1) To produce a suitable active compound preparation, 1 part by weight of active compound is mixed with the stated amounts of solvent and emulsifier, and the concentrate is diluted with emulsifier-containing water to the desired concentration. For application with ammonium salts and penetrants (rapeseed oil methyl ester 500 EW), these ingredients are each added to the spray liquor in a concentration of 1000 ppm.
Cotton plants (Gossypium hirsutum) heavily infested by the cotton aphid (Aphis gossypii) are treated by spraying with the active compound preparation of the desired concentration. After 6 days, the kill in % is determined 100% means that all aphids have been killed; 0% means that no aphids have been killed.

In test [2] the test system is Bemisia tabaci. The test is described as follows: Bemisia tabaci (BEMITA spray treatment) on cotton leaf discs. The note with it: 0.8 ppm active compound; spray on cotton leaf discs infested by whitefly larvae; 7 days. On the procedure: Bemisia tabaci (BEMITA Spray Treatment)
To produce a suitable active compound preparation, 1 part by weight of active compound is mixed with the stated amounts of solvents and emulsifier, and the concentrate is diluted with emulsifier-containing water to the desired concentration.
Discs of cotton leaves (Gossypium hirsutum) infested by whitefly (Bemisia tabaci) larvae are sprayed with an active compound preparation of the desired concentration.
After 7 days, the effects in % is determined 100% means that all whiteflies have been killed; 0% means that none of the whiteflies have been killed.

Test [3] has as its system Myzus persicae. The test is described as follows: Foliar application Myzus persicae / bell peppers (spray test). The note with it: spray on infested bell pepper plants, AMS and/or RME each 1000 ppm in spray liquor where named, 6 days. On the procedure: Foliar Application Myzus persicae/Bell Peppers
as §1
Bell pepper plants (Capsicum annuum) heavily infested by the green peach aphid (Myzus persicae) are treated by spraying with the active compound preparation of the desired concentration. After 6 days, the kill in % is determined. 100% means that all aphids have been killed; 0% means that no aphids have been killed.

Setting [4] is: 0.8 ppm active compound, AMS and/or RME each 1000 ppm in spray liquor where named.

As for `O=C1N=C(N(Cc2ccc(Cl)nc2)C2CC2)CO1` [I-6, 4-[[(6-chloro-3-pyridinyl)methyl]cyclopropylamino]-2(5H)-oxazolone], the “Kill in % after 6d” value in test [1] (setting [4]) turned out to be 0%; in test [1] (4 ppm active compound, RME 1000 ppm in spray liquor where named), 40%; in test [3] (4 ppm active compound) it was 15%. In test [2], the “Kill in % after 7d” value is listed as 40%.
Consider `CN(Cc1ccc(Cl)nc1)C1=NC(=O)OC1` [I-1, 4-[[(6-chloro-3-pyridinyl)methyl]methylamino]-2(5H)-oxazolone], for which the “Kill in % after 6d” value in test [1] (setting [4]) was 35%; in test [3] (0.8 ppm active compound) it was 0%.
